Values quoted from earlier work in US11554095B1, “Mitomycin-C bladder instillation syringe kit” (Edge Pharma, LLC, priority 2019, dated 2023).

Experiments:
[1] = urine

For `CO[C@@]12[C@H](COC(N)=O)C3=C(C(=O)C(C)=C(N)C3=O)N1C[C@@H]1N[C@@H]12` [MMC, Mitomycin-C], the “pH of solution in water” value (5 mg/mL solution in water) is given as 6.0-7.5, the “pH of saturated solution” value (saturated solution) is given as 5.0-9.0 and the “decrease in MMC concentrations” value ([1]; pH 5, after 2 hours) is given as 44%. For the same compound, the “loss of MMC” value ([1]; pH 7, after 2 hours) was “less than 4%”.
